Data from ChEMBL document CHEMBL3885881, “DrugMatrix”.

Species: Rattus norvegicus
Assay: DrugMatrix - Regimen: Daily Repeat
Type: toxicity, organism-based, Sprague-Dawley
Parameters: regimen Daily Repeat, gender Male, age 6-8 weeks
Conditions: in vivo, iv, 0 mg/kg, dose level Control, vehicle 100 % SALINE; for ABSOLUTE BASOPHIL / ABSOLUTE EOSINOPHIL / ABSOLUTE LYMPHOCYTE / ABSOLUTE MONOCYTE / ABSOLUTE SEGMENTED NEUTROPHIL / BASOPHIL / EOSINOPHIL / ERYTHROCYTE COUNT / HEMATOCRIT / HEMOGLOBIN / LEUKOCYTE COUNT / LYMPHOCYTE / MEAN CORPUSCULAR HEMOGLOBIN / MEAN CORPUSCULAR HEMOGLOBIN CONCENTRATION / MEAN CORPUSCULAR VOLUME / MONOCYTE / NEUTROPHIL / NUCLEATED RED BLOOD CELLS / PLATELET COUNT: tissue Blood; for ALANINE AMINOTRANSFERASE / ALBUMIN / ALKALINE PHOSPHATASE / ASPARTATE AMINOTRANSFERASE / BLOOD UREA NITROGEN / CARBON DIOXIDE / CHLORIDE / CHOLESTEROL / CREATINE PHOSPHOKINASE / CREATININE / GLUCOSE / LACTATE DEHYDROGENASE / LIPASE / PHOSPHORUS / POTASSIUM / SODIUM / TOTAL BILIRUBIN / TOTAL PROTEIN / URIC ACID: tissue Plasma

C[N+](C)(C)CCOC(=O)CCC(=O)OCC[N+](C)(C)C.[Cl-].[Cl-] [SUCCINYLCHOLINE CHLORIDE]
ABSOLUTE BASOPHIL (72 h, time 3 day): 0 CELLS/uL
ABSOLUTE EOSINOPHIL (72 h, time 3 day): 193.5 CELLS/uL
ABSOLUTE LYMPHOCYTE (72 h, time 3 day): 15717.5 CELLS/uL
ABSOLUTE MONOCYTE (72 h, time 3 day): 389.33 CELLS/uL
ABSOLUTE SEGMENTED NEUTROPHIL (72 h, time 3 day): 1883 CELLS/uL
BASOPHIL (72 h, time 3 day): 0%
EOSINOPHIL (72 h, time 3 day): 1.17%
ERYTHROCYTE COUNT (72 h, time 3 day): 5.68 x10E6/uL
HEMATOCRIT (72 h, time 3 day): 35.83%
HEMOGLOBIN (72 h, time 3 day): 13.48 G/DL
LEUKOCYTE COUNT (72 h, time 3 day): 18.18 x10E3/uL
LYMPHOCYTE (72 h, time 3 day): 86.67%
MEAN CORPUSCULAR HEMOGLOBIN (72 h, time 3 day): 23.8 pg
MEAN CORPUSCULAR HEMOGLOBIN CONCENTRATION (72 h, time 3 day): 37.68 G/DL
MEAN CORPUSCULAR VOLUME (72 h, time 3 day): 63.27 fL
MONOCYTE (72 h, time 3 day): 2.17%
NEUTROPHIL (72 h, time 3 day): 10%
NUCLEATED RED BLOOD CELLS (72 h, time 3 day): 0 /100WBC
PLATELET COUNT (72 h, time 3 day): 1186.33 x10E3/uL
ALANINE AMINOTRANSFERASE (72 h, time 3 day): 68.5 u/L
ALBUMIN (72 h, time 3 day): 4.37 G/DL
ALKALINE PHOSPHATASE (72 h, time 3 day): 396.33 u/L
ASPARTATE AMINOTRANSFERASE (72 h, time 3 day): 92.5 u/L
BLOOD UREA NITROGEN (72 h, time 3 day): 18 mg/dL
CARBON DIOXIDE (72 h, time 3 day): 24.33 mmol/L
CHLORIDE (72 h, time 3 day): 102.4 MEQ/L
CHOLESTEROL (72 h, time 3 day): 67.17 mg/dL
CREATINE PHOSPHOKINASE (72 h, time 3 day): 378.67 u/L
CREATININE (72 h, time 3 day): 0.19 mg/dL
GLUCOSE (72 h, time 3 day): 178.33 mg/dL
LACTATE DEHYDROGENASE (72 h, time 3 day): 245.17 u/L
LIPASE (72 h, time 3 day): 9.2 u/L
PHOSPHORUS (72 h, time 3 day): 12.37 mg/dL
POTASSIUM (72 h, time 3 day): 6.48 MEQ/L
SODIUM (72 h, time 3 day): 143.28 MEQ/L
TOTAL BILIRUBIN (72 h, time 3 day): 0.23 mg/dL
TOTAL PROTEIN (72 h, time 3 day): 5.65 G/DL
URIC ACID (72 h, time 3 day): 1.6 mg/dL
ABSOLUTE BASOPHIL (120 h, time 5 day): 0 CELLS/uL
ABSOLUTE EOSINOPHIL (120 h, time 5 day): 27.5 CELLS/uL
ABSOLUTE LYMPHOCYTE (120 h, time 5 day): 13593.17 CELLS/uL
ABSOLUTE MONOCYTE (120 h, time 5 day): 576 CELLS/uL
ABSOLUTE SEGMENTED NEUTROPHIL (120 h, time 5 day): 1836.67 CELLS/uL
BASOPHIL (120 h, time 5 day): 0%
EOSINOPHIL (120 h, time 5 day): 0.17%
ERYTHROCYTE COUNT (120 h, time 5 day): 5.99 x10E6/uL
HEMATOCRIT (120 h, time 5 day): 37.42%
HEMOGLOBIN (120 h, time 5 day): 13.78 G/DL
LEUKOCYTE COUNT (120 h, time 5 day): 16.03 x10E3/uL
LYMPHOCYTE (120 h, time 5 day): 85.17%
MEAN CORPUSCULAR HEMOGLOBIN (120 h, time 5 day): 23.08 pg
MEAN CORPUSCULAR HEMOGLOBIN CONCENTRATION (120 h, time 5 day): 36.83 G/DL
MEAN CORPUSCULAR VOLUME (120 h, time 5 day): 62.6 fL
MONOCYTE (120 h, time 5 day): 3.5%
NEUTROPHIL (120 h, time 5 day): 11.17%
NUCLEATED RED BLOOD CELLS (120 h, time 5 day): 0 /100WBC
PLATELET COUNT (120 h, time 5 day): 1352.5 x10E3/uL
ALANINE AMINOTRANSFERASE (120 h, time 5 day): 49.83 u/L
ALBUMIN (120 h, time 5 day): 4.25 G/DL
ALKALINE PHOSPHATASE (120 h, time 5 day): 331.33 u/L
ASPARTATE AMINOTRANSFERASE (120 h, time 5 day): 86.17 u/L
BLOOD UREA NITROGEN (120 h, time 5 day): 19.5 mg/dL
CARBON DIOXIDE (120 h, time 5 day): 26.67 mmol/L
CHLORIDE (120 h, time 5 day): 103 MEQ/L
CHOLESTEROL (120 h, time 5 day): 67.5 mg/dL
CREATINE PHOSPHOKINASE (120 h, time 5 day): 346.17 u/L
CREATININE (120 h, time 5 day): 0.22 mg/dL
GLUCOSE (120 h, time 5 day): 170.67 mg/dL
LACTATE DEHYDROGENASE (120 h, time 5 day): 405.5 u/L
LIPASE (120 h, time 5 day): 8.83 u/L
PHOSPHORUS (120 h, time 5 day): 11.3 mg/dL
POTASSIUM (120 h, time 5 day): 6.06 MEQ/L
SODIUM (120 h, time 5 day): 143.4 MEQ/L
TOTAL BILIRUBIN (120 h, time 5 day): 0.17 mg/dL
TOTAL PROTEIN (120 h, time 5 day): 6.22 G/DL
URIC ACID (120 h, time 5 day): 1.63 mg/dL
